Data on 8 molecules can be found in patent US20260200927A1, “NON PEPTIDERGIC AGONISTS OF OXYTOCIN RECEPTOR” (UNIVERSITE DE STRASBOURG, priority 2022, published 2026).

Each structure is given as a SMILES string. pEC50, pIC50: −log10 of the molar value.

For one series, the target named is V1A-R (Homo sapiens, UniProt P37288). Put plainly: V1A receptor antagonism measured as calcium signal. In kind it is cell-based. Conditions: antagonist, n = 3, read-out: V1A-R (Antago) IC50.
The target of another series is T1, oxytocin receptor (Homo sapiens, UniProt P30559).
T1 construct: expressed in transfected cells; host or cells: CHO cell lines
T1 sequence (P30559 1-389): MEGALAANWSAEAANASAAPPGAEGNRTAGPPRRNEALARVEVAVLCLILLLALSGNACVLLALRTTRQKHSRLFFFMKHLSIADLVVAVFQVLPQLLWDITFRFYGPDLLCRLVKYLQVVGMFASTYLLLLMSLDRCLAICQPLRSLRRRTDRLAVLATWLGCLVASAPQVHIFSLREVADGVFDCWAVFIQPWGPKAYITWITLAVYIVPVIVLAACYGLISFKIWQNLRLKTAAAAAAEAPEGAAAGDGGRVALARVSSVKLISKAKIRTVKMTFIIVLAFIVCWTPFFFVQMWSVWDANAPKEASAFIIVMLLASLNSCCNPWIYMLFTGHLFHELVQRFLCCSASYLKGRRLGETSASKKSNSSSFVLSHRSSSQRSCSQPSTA
Put plainly: IP-One IP1 accumulation assay in CHO cell lines expressing oxytocin receptor (agonism). In kind it is cell-based. Conditions: CHO cells expressing oxytocin receptor, n = 3, read-out: OT-R EC50. How it is done:
The activation constants (EC50 in nM) were measured in CHO cell lines expressing oxytocin receptor by IP-One IP1 accumulation assay. These values are the mean±SEM of at least three separate experiments performed in triplicate.

The conditions of series [1]: cited from earlier work.

Sequence of V1A-R (P37288 whole entry, species assumed): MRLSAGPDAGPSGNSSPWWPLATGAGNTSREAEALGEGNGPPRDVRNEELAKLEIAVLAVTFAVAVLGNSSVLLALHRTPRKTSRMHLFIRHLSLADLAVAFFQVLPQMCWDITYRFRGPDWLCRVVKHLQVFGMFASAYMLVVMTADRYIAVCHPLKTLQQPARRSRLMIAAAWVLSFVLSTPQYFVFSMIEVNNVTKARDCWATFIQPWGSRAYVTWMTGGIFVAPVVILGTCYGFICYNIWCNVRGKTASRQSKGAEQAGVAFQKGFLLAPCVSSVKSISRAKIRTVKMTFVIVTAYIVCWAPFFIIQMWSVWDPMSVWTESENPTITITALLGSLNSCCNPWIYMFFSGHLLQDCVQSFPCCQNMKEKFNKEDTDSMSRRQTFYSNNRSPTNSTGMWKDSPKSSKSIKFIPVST

The term pIC50 denotes the IC50 on a negative log10 scale, so that one unit is a factor of ten. For `Cc1cc(C(=O)N2Cc3cnn(C)c3Nc3ccccc32)ccc1CNC(=O)N1C[C@H](F)C[C@H]1C(=S)N(C)C` [Compound 1], the pIC50 on V1A-R is 6.60. What is called pEC50 is the EC50 on a negative log10 scale, so that one unit is a factor of ten. On to `CO[C@@H]1C[C@@H](C(=S)N(C)C)N(C(=O)NCc2ccc(C(=O)N3Cc4cnn(C)c4Nc4ccccc43)cc2C)C1` [Compound 3], for which the pEC50 at oxytocin receptor was 7.48. Still for that read-out and setting: to `Cc1cc(C(=O)N2Cc3cnn(C)c3Nc3ccccc32)ccc1CNC(=O)N1C[C@H](OCCCO)C[C@H]1C(=S)N(C)C` [Compound 6, (2S,4R)-2-(dimethylcarbamothioyl)-4-(3-hydroxypropoxy)-N-[(2-methyl-4-4-methyl-2,4,5,9-tetraazatricyclo[8.4.0.0,3,7]tetradeca-1(14),3(7),5,10,12-pentaene-9-carbonylphenyl)methyl]pyrrolidine-1-carboxamide] belongs 7.53.

With `Cc1cc(C(=O)N2Cc3cnn(C)c3Nc3ccccc32)ccc1CNC(=O)N1C[C@H](OCCCCO)C[C@H]1C(=S)N(C)C` [Compound 7, (2S,4R)-2-(dimethylcarbamothioyl)-4-(4-hydroxybutoxy)-N-[(2-methyl-4-4-methyl-2,4,5,9-tetraazatricyclo[8.4.0.0,3,7]tetradeca-1(14),3(7),5,10,12-pentaene-9-carbonylphenyl)methyl]pyrrolidine-1-carboxamide], on oxytocin receptor, the pEC50 was 7.93.

Take `Cc1cc(C(=O)N2Cc3cnn(C)c3Nc3ccccc32)ccc1CNC(=O)N1C[C@H](OCc2cccc(S(N)(=O)=O)c2)C[C@H]1C(=S)N(C)C` [Compound 13, (2S,4R)-2-(dimethylcarbamothioyl)-N-[(2-methyl-4-4-methyl-2,4,5,9-tetraazatricyclo[8.4.0.0,3,7]tetradeca-1(14),3(7),5,10,12-pentaene-9-carbonylphenyl)methyl]-4-[(3-sulfamoylphenyl)methoxy]pyrrolidine-1-carboxamide]: the pEC50 at oxytocin receptor was 7.48. Same read-out and setting: the figure for `Cc1cc(C(=O)N2Cc3cnn(C)c3Nc3ccccc32)ccc1CNC(=O)N1C[C@H](OCc2nnn[nH]2)C[C@H]1C(=S)N(C)C` [Compound 19, (2S,4R)-2-(dimethylcarbamothioyl)-N-[(2-methyl-4-4-methyl-2,4,5,9-tetraazatricyclo[8.4.0.0,3,7]tetradeca-1(14),3(7),5,10,12-pentaene-9-carbonylphenyl)methyl]-4-[(1H-1,2,3,4-tetrazol-5-yl)methoxy]pyrrolidine-1-carboxamide] is 7.76; for `Cc1cc(C(=O)N2Cc3cnn(C)c3Nc3ccccc32)ccc1CNC(=O)N1CC(OCCC2NC(=O)NC2=O)CC1C(=S)N(C)C` [Compound 21, (2S,4R)-2-(dimethylcarbamothioyl)-4-[2-(2,5-dioxoimidazolidin-4-yl)ethoxy]-N-[(2-methyl-4-4-methyl-2,4,5,9-tetraazatricyclo[8.4.0.0,3,7]tetradeca-1(14),3(7),5,10,12-pentaene-9-carbonylphenyl)methyl]pyrrolidine-1-carboxamide] it is 7.84. Turning to `CC[C@H](C)[C@@H]1NC(=O)[C@H](Cc2ccc(O)cc2)NC(=O)[C@@H](N)CSSC[C@@H](C(=O)N2CCC[C@H]2C(=O)N[C@@H](CC(C)C)C(=O)NCC(N)=O)NC(=O)[C@H](CC(N)=O)NC(=O)[C@H](CCC(N)=O)NC1=O` [OT], in series [1], the half-life in blood result was “about 3 minute”.
